From publication PMC8119466, “A screen of FDA-approved drugs identifies inhibitors of protein tyrosine phosphatase 4A3 (PTP4A3 or PRL-3)” (Scientific Reports, 2021)
Counter-ions that a name gives are not always drawn. Like-named read-outs stand apart in the source and are kept apart here.

Assays:
[1] = target: T1, recombinant PRL-3 (Homo sapiens, UniProt O75365); test: In vitro phosphatase assay (DiFMUP hydrolysis), PRL-3; format: biochemical; settings: for IC50: DiFMUP at KM, read-out: Calculated IC50, PRL-3 phosphatase activity; for % Phosphatase Activity (compared to DMSO) PRL-3: FDA-approved drug screen
T1 construct: 6xHis (N, cleaved yes); made in house; host or cells: E. coli One Shot BL21 Star
T1 sequence (O75365 whole entry): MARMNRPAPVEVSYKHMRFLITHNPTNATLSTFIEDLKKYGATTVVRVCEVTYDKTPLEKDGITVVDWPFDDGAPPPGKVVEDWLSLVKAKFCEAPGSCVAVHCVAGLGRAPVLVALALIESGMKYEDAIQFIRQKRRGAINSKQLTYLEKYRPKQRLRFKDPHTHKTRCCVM

[2] = tested on: HEK293T cells; test: MTT viability assay; format: cell-based, human; settings: drug doses 1 to 100 µM, 16 h, normalized to 1% DMSO
Procedure: Cells were seeded into duplicate wells of a 96 well plate at a density of 2 × 10^4 cells per well and allowed to recover for 24 h. Cells were then treated with drug or DMSO at the indicated concentrations for 16 h. Following drug treatment, 10 μL of 5 mg/ml MTT (Sigma, M5655) was added to each well and cells were incubated for 4 h. Finally, media were removed, and the dye was solubilized in 100 μL of 0.1 M HCl in isopropanol. Absorbance was measured at 570 nm and 690 nm with final absorbance measurements as 570–690 nm.

[3] = target: T2, recombinant PRL-2 (Homo sapiens, UniProt Q12974); test: In vitro phosphatase assay (DiFMUP hydrolysis), PRL-2; format: biochemical; settings: for IC50: DiFMUP at KM, read-out: Calculated IC50, PRL-2 phosphatase activity; for % Phosphatase Activity (compared to DMSO) PRL-2: FDA-approved drug screen;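 as to all read-outs here: PRL-2 activity read as DiFMUP hydrolysis after 20 min at room temperature with drug, enzyme first pre-reduced at 4 °C for 20 min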
T2 construct: 6xHis (N, cleaved yes); made in house; host or cells: E. coli One Shot BL21 Star
T2 sequence (Q12974 1-167): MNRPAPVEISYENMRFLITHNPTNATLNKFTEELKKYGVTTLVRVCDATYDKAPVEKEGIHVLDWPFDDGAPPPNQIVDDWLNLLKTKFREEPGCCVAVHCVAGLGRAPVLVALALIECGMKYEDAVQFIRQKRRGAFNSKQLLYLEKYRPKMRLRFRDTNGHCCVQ

[4] = target: T3, recombinant PRL-1 (Homo sapiens, UniProt Q93096); test: In vitro phosphatase assay (DiFMUP hydrolysis), PRL-1; format: biochemical; settings: for IC50: DiFMUP at KM, read-out: Calculated IC50, PRL-1 phosphatase activity; for % Phosphatase Activity (compared to DMSO) PRL-1: FDA-approved drug screen
T3 construct: 6xHis (N, cleaved yes); made in house; host or cells: E. coli One Shot BL21 Star
T3 sequence (Q93096 1-173): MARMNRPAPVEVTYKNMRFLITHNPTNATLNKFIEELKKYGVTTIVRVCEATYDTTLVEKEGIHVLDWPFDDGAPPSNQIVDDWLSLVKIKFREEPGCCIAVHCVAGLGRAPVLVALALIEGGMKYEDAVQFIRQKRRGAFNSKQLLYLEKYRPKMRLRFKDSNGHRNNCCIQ

| Molecule | % Phosphatase Activity (compared to DMSO) PRL-3 ([1]; compared to DMSO) | % Phosphatase Activity (compared to DMSO) PRL-2 ([3]; compared to DMSO) | % Phosphatase Activity (compared to DMSO) PRL-1 ([4]; compared to DMSO) | other results |
| --- | --- | --- | --- | --- |
| Cc1cc(C(C#N)c2ccc(Cl)cc2)c(Cl)cc1NC(=O)c1cc(I)cc(I)c1O (centres unmarked) [Closantel, reference compound] | 40% | 17% | 16% | IC50 ([1]; 2.5 µM protein): 11 ± 0.5 µM; viability (MTT) [2]: increased MTT absorbance; IC50 ([3]; 2.5 µM protein): 14 ± 5 µM; IC50 ([4]; 2.5 µM protein): 17 ± 3 µM |
| Vitamin B12 [reference compound] |  |  |  | % Phosphatase Activity (compared to DMSO) PRL-3 ([1]; activity compared to DMSO): -2%; IC50 ([1]; […] protein): 0.9 ± 0.1 µM; viability (MTT) [2]: no effect on the viability; % Phosphatase Activity (compared to DMSO) PRL-2 ([3]; activity compared to DMSO): -16%; IC50 ([3]; […] protein): 0.9 ± 0.2 µM; % Phosphatase Activity (compared to DMSO) PRL-1 ([4]; activity compared to DMSO): 2.68%; IC50 ([4]; […] protein): 0.7 ± 0.2 µM |
| NNC(=O)c1ccncc1.Nc1ccc(C(=O)O)c(O)c1 [Pasiniazid] | 82% | 97% | 91% |  |
| CCCCOC(=O)c1ccc(O)cc1 [Butylparaben] | 80% | 94% | 91% |  |
| Cc1nc2n(c(=O)c1CCN1CCC(c3noc4cc(F)ccc34)CC1)CCCC2 [Risperidone] | 88% | 94% | 104% |  |
| Oc1ccc(OCc2ccccc2)cc1 [Monobenzone] | 72% | 112% | 105% |  |
| O=[N+]([O-])c1ccc(O)c2ncccc12 [Nitroxoline] | 49% | 48% | 58% |  |
| Nc1nc(CC(=O)Nc2ccc(CCNC[C@H](O)c3ccccc3)cc2)cs1 [Mirabegron] | 88% | 113% | 104% |  |
| CC1=NN(c2ccc(C)c(C)c2)C(=O)/C1=N\Nc1cccc(-c2cccc(C(=O)O)c2)c1O [Eltromobag Olamine, reference compound] |  |  |  | IC50 ([1]; […] protein): 27 ± 4 µM; IC50 ([3]; […] protein): 166 ± 22 µM; IC50 ([4]; […] protein): 61 ± 15 µM |
| CCCCCCOC(=O)N=C(N)c1ccc(NCc2nc3cc(C(=O)N(CCC(=O)OCC)c4ccccn4)ccc3n2C)cc1 [Dabigatran Etexilate] | 106% | 112% | 121% |  |
| NC(=O)C[S@@+]([O-])C(c1ccccc1)c1ccccc1 [Armodafinil] | 73% | 90% | 94% |  |
| Cc1c(O)cccc1C(=O)N[C@@H](CSc1ccccc1)[C@H](O)CN1C[C@H]2CCCC[C@H]2C[C@H]1C(=O)NC(C)(C)C [Nelfinavir Mesylate] | 79% | 91% | 102% |  |
